{"source": "patent US20240366693A1", "about": "“COMPOSITIONS FOR ENHANCING IMMUNOTHERAPY EFFICACY IN COLORECTAL CANCER TREATMENT” (The Chinese University of Hong Kong, priority 2023, published 2024)", "key": {"CD4+ T cells": {"tested_on": "CD4+ T cells", "assay": "Foxp3+ Treg differentiation of CD4+ T cells in vitro", "type": "cell-based, mouse", "experimental": "T cells were isolated from spleens of tumour-bearing mice by negative selection using magnetic cell separation (EasySep mouse T cell isolation kit, CD8+ T cell isolation kit or CD4+ CD25+ Regulatory T cell Isolation Kit II; STEMCELL Technologies, Vancouver, Canada). Isolated T cells were cultured in Roswell Park Memorial Institute 1640 medium supplemented with 10% FBS, 50 μM β-mercaptoethanol, 10 ng/ml mouse recombinant interleukin-2 (IL-2), 0.1 ng/mL transforming growth factor β (TGFβ) and activated with Dynabeads mouse anti-CD3/CD28 beads (Thermo Fisher Scientific, Waltham, MA) for 72 hours. Cells were then collected for analysis."}, "human AHR protein": {"molecular_target": "T1, human AHR protein (Homo sapiens, UniProt P35869)", "T1 sequence (P35869 11-848)": "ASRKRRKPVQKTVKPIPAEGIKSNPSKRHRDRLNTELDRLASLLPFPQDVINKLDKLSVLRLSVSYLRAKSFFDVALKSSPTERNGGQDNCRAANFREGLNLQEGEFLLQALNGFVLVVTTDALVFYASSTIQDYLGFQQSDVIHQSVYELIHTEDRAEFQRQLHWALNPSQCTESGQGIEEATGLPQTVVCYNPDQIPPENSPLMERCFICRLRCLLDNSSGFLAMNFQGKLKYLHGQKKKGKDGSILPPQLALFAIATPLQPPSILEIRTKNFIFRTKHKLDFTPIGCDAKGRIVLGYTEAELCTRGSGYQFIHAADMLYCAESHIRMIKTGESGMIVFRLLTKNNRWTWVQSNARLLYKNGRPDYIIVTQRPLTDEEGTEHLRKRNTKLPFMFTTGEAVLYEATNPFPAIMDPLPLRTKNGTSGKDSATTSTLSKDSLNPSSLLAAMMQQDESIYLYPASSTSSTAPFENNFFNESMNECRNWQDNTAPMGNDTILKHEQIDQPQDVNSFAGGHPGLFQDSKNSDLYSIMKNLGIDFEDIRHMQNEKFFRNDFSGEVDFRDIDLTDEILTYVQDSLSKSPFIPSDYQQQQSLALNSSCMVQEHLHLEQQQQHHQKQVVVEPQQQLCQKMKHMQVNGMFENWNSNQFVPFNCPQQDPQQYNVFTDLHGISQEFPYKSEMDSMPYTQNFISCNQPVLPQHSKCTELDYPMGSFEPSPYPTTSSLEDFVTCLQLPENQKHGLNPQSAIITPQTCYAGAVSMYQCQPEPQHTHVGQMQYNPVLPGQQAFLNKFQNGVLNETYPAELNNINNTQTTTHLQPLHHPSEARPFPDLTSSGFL", "assay": "biochemical", "type": "binding", "source_text": "We also performed the surface plasma resonance (SPR) assay to explore the interaction between ICA/Kyn with the human AHR receptor. […] These support our hypothesis that ICA displaces Kyn from AHR receptor and inhibited Kyn-mediated Treg differentiation through receptor competition."}, "CT26": {"tested_on": "CT26", "assay": "ICA model in CT26 syngeneic mice with anti-PD1 and Kyn supplementation", "type": "in vivo, mouse", "settings": "Kyn 10 mg/kg i.p. twice weekly", "experimental": "For indolecarboxylic acid (ICA) model, ICA (18 mg/kg, Sigma-Aldrich, St. Louis, MO) was gavaged to mice daily. Tumour inoculation and dosing schedule of anti-PD1 or isotype control is the same as described above. After the outgrowth of palpable tumours, kynurenine (Kyn, 10 mg/kg, Sigma-Aldrich) was intraperitoneally injected into mice twice weekly."}, "CD8+ T cells": {"tested_on": "CD8+ T cells", "assay": "Cytotoxic CD8+ T cell markers, T cells from human PBMC", "type": "cell-based", "settings": "TH1020 with butyrate", "experimental": "T cells isolated from healthy human peripheral blood mononuclear cells (PBMC) using immunomagnetic negative selection kit (17951, Stemcell Technologies, Vancouver, CA). Isolated T cells were then cultured in complete RPMI-1640 medium supplied with human CD3/CD28 magnet beads (11161D, Thermo Fisher Scientific, Waltham, US) and 30 U/ml recombinant human IL-2 (589104, BioLgend, San Diego, US) for expiation and activation for three days. Mouse T cells were isolated from the spleen of naïve mice and purified with Mouse T cell isolation kit (19851, Thermo Fisher Scientific, Waltham, US), cultured in complete RPMI-1640 medium with mouse CD3/CD28 beads (11456D, Thermo Fisher Scientific, Waltham, US) and 30 U/ml recombinant mouse IL-2 (575404, BioLegend, San Diego, US).\nCytotoxic CD8+ T cell markers Granzyme B, IFN-γ, TNF-α under the in vitro treatments of R.i CM, NaBu or TLR5 inbibitor TH1020 (HY-116961, MedChemExpress, Monmouth Junction, US) were analyzed with flow cytometry. Isolated human T cells were stimulated with 30 ng/ml PMA, 1 μg/ml ionomycin and 2.5 μg/ml monensin in complete RPMI-1640 medium at 37° C. for 4 hours. […]"}, "NF-κB": {"tested_on": "NF-κB", "assay": "Phospho-NF-κB p65 in activated Jurkat E6.1 T cells", "type": "cell-based, human", "settings": "TH1020", "experimental": "Phospho-NF-κB p65 (Ser536) Rabbit mAb (3033, Cell Signalling Technology, Danvers, US, 1:1000) and NF-κB p65 (D14E12) Rabbit mAb (8242, Cell Signalling Technology, Danvers, US, 1:1000) were used to measure NF-κB nuclear translocation in αCD3/αCD28/IL2 activated Jurkat E6.1 T cells.\nNormal human epithelial cell NCM460, human CRC cell lines HCT116, LoVo, SW480, and mouse CRC cell lines MC38 and CT26 were cultured in Dulbecco's Modified Eagle's Medium (DMEM) with 10% fetal bovine serum (FBS) and 1% penicillin-streptomycin (P/S). Jurkat E6.1 (TIB-152, ATCC) was cultured in RPMI-1640 supplied with 10% FBS and 1% penicillin-streptomycin and activated in 3 μg/ml anti-CD3 (300332, BioLgend, San Diego, US), 5 μg/ml anti-human CD28 (302934, BioLgend, San Diego, US) and 100 IU/ml recombinant human IL-2 (589104, BioLgend, San Diego, US) pre-coated wells for 3 days."}, "MC-38": {"tested_on": "MC-38", "assay": "MC38 rectum orthotopic tumour model", "type": "in vivo, mouse", "experimental": "A MSI type mouse CRC cell line, MC-38 cell mix [5×10^5 cells in 10 μL Matrigel (354248, Corning, Manassas, US) per mouse] was orthotopically implanted into the rectum of C57BL/6. […] RMP1-14, Bio X Cell, West Lebanon, US) or control IgG (100 μg per mouse, BP0089, Colone: 2A-3, Bio X Cell) was injected intraperitoneally into MC-38 bearing mice, and followed by total five injections with three days interval one week after MC38 implantation. For tumour-infiltrating immune cell analysis, tumour from MC-38 and CT-26 bearing rectal orthotopic mouse models was minced on ice and digested in PBS buffer containing 0.5 mg/mL collagenase IV and 0.25 mg/ml DNase I at 37° C. for 30 min. After digestion, tumour tissue was filtered through a 70 μm cell strainers, and then distributed into different panels. For the surface staining of MDSC, cells were stained with Brilliant Violet 605 anti-mouse CD45 antibody (30-F11) (103140, BioLegend), PerCP/Cyanine5.5 anti-mouse/human CD11b antibody (M1/70) (101228, BioLegend), PE anti-mouse Ly-6G/Ly-6C (Gr-1) antibody (RB6-8C5). MDSC was gated in CD45^+ CD11b^+ Gr-1^+. For CD8 functional markers staining, the procedures were similar with the in vitro T cell analysis. Antibodies used for staining are as following: Brilliant Violet 605 anti-mouse CD45 antibody (30-F11) (103140, BioLegend), PE anti-mouse CD3 antibody (17A2) (100206, BioLegend), Brilliant Violet anti-mouse CD8a antibody (53-6.7) (100738, BioLegend), PE/Cyanine5 anti-mouse CD4 antibody (GK1.5) (100410, BioLegend), PE/Cyanine7 anti-human/mouse Granzyme B recombinant antibody (QA16A02) (372214, BioLegend), FITC anti-mouse IFN-γ antibody (XMG1.2) (505806, BioLegend), Brilliant Violet 711 anti-moue TNF-α (MP6-XT22) (506349, BioLegend). Flow Cytometry was performed on FACSAria cell sorter (BD Biosciences, Franklin Lakes, US). Data was analyzed by FlowJo 10.4."}, "CT-26": {"tested_on": "CT-26", "assay": "CT26 rectum orthotopic tumour model", "type": "in vivo, mouse", "source_text": "CT-26 tumour-bearing BALB/c mice with the same setting and treatment of MC-38 orthotopic model was developed to evaluate the efficacy of αPD-1 antibody immunotherapy on microsatellite stable (MSS)-type colorectal cancer. All experimental procedures were approved by the Chinese University of Hong Kong Animal Ethics Committee.\nFor tumour-infiltrating immune cell analysis, tumour from MC-38 and CT-26 bearing rectal orthotopic mouse models was minced on ice and digested in PBS buffer containing 0.5 mg/mL collagenase IV and 0.25 mg/ml DNase I at 37° C. for 30 min. After digestion, tumour tissue was filtered through a 70 μm cell strainers, and then distributed into different panels. For the surface staining of MDSC, cells were stained with Brilliant Violet 605 anti-mouse CD45 antibody (30-F11) (103140, BioLegend), PerCP/Cyanine5.5 anti-mouse/human CD11b antibody (M1/70) (101228, BioLegend), PE anti-mouse Ly-6G/Ly-6C (Gr-1) antibody (RB6-8C5). MDSC was gated in CD45^+ CD11b^+ Gr-1^+. For CD8 functional markers staining, the procedures were similar with the in vitro T cell analysis. Antibodies used for staining are as following: Brilliant Violet 605 anti-mouse CD45 antibody (30-F11) (103140, BioLegend), PE anti-mouse CD3 antibody (17A2) (100206, BioLegend), Brilliant Violet anti-mouse CD8a antibody (53-6.7) (100738, BioLegend), PE/Cyanine5 anti-mouse CD4 antibody (GK1.5) (100410, BioLegend), PE/Cyanine7 anti-human/mouse Granzyme B recombinant antibody (QA16A02) (372214, BioLegend), FITC anti-mouse IFN-γ antibody (XMG1.2) (505806, BioLegend), Brilliant Violet 711 anti-moue TNF-α (MP6-XT22) (506349, BioLegend). Flow Cytometry was performed on FACSAria cell sorter (BD Biosciences, Franklin Lakes, US). Data was analyzed by FlowJo 10.4."}, "[1]": {"settings": "treatment alone vs αPD-1 therapy and control groups"}}, "note": "pKd: −log10 of the molar value.", "data": [{"compound": "Nc1ccccc1C(=O)CC(N)C(=O)O", "note": "(centres unmarked) [Kyn, Kynurenine, reference compound]", "values": [{"measurement": "Treg differentiation", "setting": "CD4+ T cells; Kyn 50 μM, P<0.0001", "value": "significantly induced Treg differentiation"}, {"measurement": "pKd", "setting": "human AHR protein", "value": 4.21}, {"measurement": "effect of Kyn supplementation on ICA immune effects", "setting": "CT26", "value": "also reversed by Kyn supplementation"}, {"measurement": "effect of Kyn supplementation on ICA tumour effect", "setting": "CT26", "value": "reversed the effect of ICA"}]}, {"compound": "Cc1ccccc1N=Nc1ccc(NC(=O)c2ccnn2C)c(C)c1", "note": "[CH-233191, reference compound]", "values": [{"measurement": "Kyn and ICA effects on Treg differentiation", "setting": "CD4+ T cells; CH-233191 10 μM", "value": "abolished both Kyn and ICA effects in mediating Treg differentiation"}]}, {"compound": "O=Cc1c[nH]c2ccccc12", "note": "[IAld, indole-3-carboxaldehyde, reference compound]", "values": [{"measurement": "Treg differentiation, treatment alone", "setting": "CD4+ T cells; naïve CD4+ T cells, without Kyn", "value": "none significantly affected Treg differentiation"}]}, {"compound": "c1ccc(Cn2c(Sc3ncnc4c3sc3ncccc34)nnc2-c2ccncc2)cc1", "note": "[TH1020, reference compound]", "values": [{"measurement": "butyrate promotion of Granzyme B, IFN-γ and TNF-α in CD8+ T cells under TLR5 antagonist", "setting": "CD8+ T cells", "value": "abolished the effective promotion of butyrate on Granzyme B, IFN-γ and TNF-α in CD8+ T cells"}, {"measurement": "R.i CM- and butyrate-induced phospho-NF-κB under TLR5 antagonist", "setting": "NF-κB", "value": "inhibited by Th1020"}]}, {"compound": "CCCC(=O)[O-].[Na+]", "note": "[NaBu, sodium butyrate]", "values": [{"measurement": "efficiency of αPD-1 therapy in combination", "setting": "MC-38; combination of αPD-1 with R.i or NaBu", "value": "did not enhance the efficiency of αPD-1 therapy"}, {"measurement": "MC38 orthotopic tumour growth", "setting": "MC-38; monotreatment, R.i 1×10^8 CFU daily gavage, 150 mM NaBu in drinking water, αPD-1 100 μg per mouse", "value": "inhibited MC38 orthotopic tumour growth"}, {"measurement": "Granzyme B+, IFN-γ+ and TNF-α+ CD8+ T cells", "setting": "MC-38; mouse, in vivo", "value": "increased"}, {"measurement": "MDSCs", "setting": "MC-38; mouse, in vivo", "value": "decreasing MDSCs"}, {"measurement": "tumour infiltrating CD8+ T cells", "setting": "MC-38; mouse, in vivo", "value": "increased infiltrating CD8^+ T cells"}, {"measurement": "anti-tumour effects in combination with anti-PD-1", "setting": "CT-26; combination with anti-PD-1", "value": "further heightened the anti-tumour effects"}, {"measurement": "infiltrating and cytotoxic CD8+ T cells in combination with anti-PD-1", "setting": "CT-26; combination with anti-PD-1", "value": "additional effects on these immune cells"}, {"measurement": "proportion of MDSCs in tumours", "setting": "CT-26; monotherapy", "value": "reduced the proportion of MDSCs in tumours"}, {"measurement": "Granzyme B+, IFN-γ and TNF-α+ CD8+ T cells", "setting": "CT-26; monotreatment", "value": "significantly increased"}, {"measurement": "proportion of infiltrating CD8+ T cells", "setting": "CT-26; monotreatment", "value": "significantly increased"}, {"measurement": "tumour size", "setting": "CT-26; [1]", "value": "still reduced"}, {"measurement": "tumour weight", "setting": "CT-26; [1]", "value": "still reduced"}]}]}
